Experimental data published in the supplement of paper PMC10307832.

Assays:
Test in all cases: relative viability (nuclei count vs DMSO), 5 days (fraction); higher = more cells survive
[1] = compound: CCOC1=CC=CC=C1N=NC2=C(NN(C2=O)C3=NC(=CS3)C4=CC=CC=C4)C [BAM7] + N=C(N)NC(=N)NCCc1ccccc1 [Phenformin] (partner 250 µM)
How it was run: (§1)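 Lung cancer cell lines in 1536-well plates got either a single drug or a fixed anchor-drug dose together with five library-drug doses (not always all listed) in √10 steps, by pin tool, on the day after seeding. Nuclei were counted after 5 days, and relative viability is the treated-to-vehicle ratio of nuclei counts. Values are medians of duplicate plates.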

[2] = compound: CCOC1=CC=CC=C1N=NC2=C(NN(C2=O)C3=NC(=CS3)C4=CC=CC=C4)C [BAM7] + Nc1ncn([C@H]2C[C@H](O)[C@@H](CO)O2)c(=O)n1 [Decitabine] (partner 2 µM)
How it was run: as §1

[3] = compound: CCOC1=CC=CC=C1N=NC2=C(NN(C2=O)C3=NC(=CS3)C4=CC=CC=C4)C [BAM7] + CCNC(=O)c1noc(-c2cc(C(C)C)c(O)cc2O)c1-c1ccc(CN2CCOCC2)cc1 [Luminespib] (partner 0.01 µM)
How it was run: as §1

[4] = compound: CCn1c(-c2nonc2N)nc2c(C#CC(C)(C)O)ncc(OC[C@H]3CCCNC3)c21 + C[C@]1(O)C[C@@H](c2nc(-c3ccc4ccc(-c5ccccc5)nc4c3)c3c(N)nccn32)C1 [Linsitinib] (partner 1 µM)
How it was run: as §1

Row | Cell Line | relative viability ([1]; first compound 0.5 µM) | relative viability ([1]; first compound 5 µM) | relative viability ([1]; first compound 15.81 µM) | relative viability ([1]; first compound 50 µM) | relative viability ([2]; first compound 0.5 µM) | relative viability ([2]; first compound 5 µM) | relative viability ([2]; first compound 15.81 µM) | relative viability ([2]; first compound 50 µM) | relative viability ([3]; first compound 0.5 µM) | relative viability ([3]; first compound 5 µM) | relative viability ([3]; first compound 15.81 µM) | relative viability ([3]; first compound 50 µM) | relative viability ([4]; first compound 0.01 µM) | relative viability ([4]; first compound 0.03162 µM) | relative viability ([4]; first compound 0.1 µM) | relative viability ([4]; first compound 0.3162 µM) | relative viability ([4]; first compound 1 µM)
1 | NCI-H1975 | 0.401 | 0.425 | 0.391 | 0.427 | 0.372 | 0.377 | 0.351 | 0.382 | 0.206 | 0.219 | 0.209 | 0.189 | 0.887 | 1.02 | 0.913 | 0.791 | 0.86
2 | NCI-H1944 | 0.223 | 0.199 | 0.205 | 0.22 | 0.407 | 0.405 | 0.41 | 0.403 | 0.762 | 0.789 | 0.617 | 0.855 | 1.15 | 1.17 | 1.21 | 1.21 | 1.21
3 | LU99A | 0.802 | 0.819 | 0.896 | 0.94 | 0.81 | 0.95 | 0.933 | 0.876 | 0.251 | 0.316 | 0.207 | 0.247 | 0.473 | 0.524 | 0.551 | 0.579 | 0.548
4 | SW 1573 | 0.386 | 0.381 | 0.327 | 0.39 | 0.502 | 0.551 | 0.636 | 0.594 | 0.356 | 0.168 | 0.417 | 0.229 | 0.827 | 0.793 | 0.81 | 0.7 | 0.772
5 | NCI-H2347 | 0.622 | 0.31 |  | 0.37 | 0.598 | 0.736 | 0.641 | 0.606 | 0.592 | 0.416 |  | 0.516 | 1.05 | 0.983 | 0.958 | 0.904 | 0.991
6 | NCI-H2009 | 0.497 | 0.542 | 0.426 | 0.465 | 0.369 | 0.39 | 0.351 | 0.418 | 1.05 | 1.06 | 1.04 | 0.979 | 1.15 | 1.19 | 1.27 | 1.1 | 1.19
7 | HCC-15 | 0.506 | 0.434 | 0.496 | 0.471 | 0.607 | 0.587 | 0.621 | 0.676 | 0.338 | 0.439 | 0.4 | 0.187 | 0.798 | 0.932 | 0.856 | 0.816 | 0.828
8 | HCC-44 | 0.351 | 0.252 | 0.172 | 0.273 | 0.96 | 0.938 | 0.926 | 0.949 | 1.38 | 1.07 | 1.03 | 0.957 | 0.608 | 0.692 | 0.636 | 0.652 | 0.71
9 | COR-L23 | 0.411 | 0.5 | 0.443 | 0.424 | 0.428 | 0.453 | 0.461 | 0.468 | 0.635 | 0.661 | 0.601 | 0.647 | 0.891 | 0.946 | 0.884 | 0.805 | 0.829
10 | HCC-78 | 0.619 | 0.583 | 0.796 | 0.777 | 0.965 | 0.696 | 0.731 | 0.752 |  |  |  |  | 0.502 | 0.496 | 0.5 | 0.424 | 0.546
11 | NCI-H1299 |  |  |  |  |  |  |  |  |  |  |  |  | 0.95 | 1.06 | 0.948 | 0.941 | 1.02
12 | NCI-H727 | 0.42 |  | 0.576 | 0.603 | 0.894 | 0.954 | 0.89 | 0.808 | 0.215 |  | 0.345 | 0.33 | 0.271 | 0.313 | 0.257 | 0.309 | 0.288
13 | NCI-H1650 | 0.473 | 0.501 | 0.484 | 0.472 | 0.39 | 0.409 | 0.431 | 0.38 | 0.171 | 0.191 | 0.19 | 0.2 |  |  |  |  | 
14 | ChaGo-K-1 | 0.425 | 0.351 | 0.393 | 0.394 | 0.508 | 0.515 | 0.512 | 0.536 | 0.509 | 0.573 | 0.58 | 0.613 |  |  |  |  | 
15 | NCI-H2228 | 0.302 | 0.355 | 0.418 | 0.317 |  |  |  |  | 0.136 | 0.116 | 0.145 | 0.153 | 0.682 | 0.65 | 0.645 | 0.585 | 0.475
16 | NCI-H1648 |  |  |  |  | 0.395 | 0.642 | 0.432 | 0.404 |  |  |  |  |  |  |  |  | 
17 | NCI-H1563 | 0.62 | 0.685 | 0.654 | 0.685 |  |  |  |  | 0.508 | 0.518 | 0.562 | 0.564 | 1.18 | 1.07 | 1.15 | 1.08 | 0.96
18 | A549 | 0.161 | 0.213 | 0.219 | 0.216 | 0.288 | 0.29 | 0.251 | 0.288 |  |  |  |  | 0.681 | 0.624 | 0.444 | 0.505 | 0.647
19 | NCI-H522 | 0.671 | 0.768 | 0.614 | 0.712 | 0.729 | 0.638 | 0.687 | 0.671 | 1.2 | 1.2 | 1.11 | 0.993 |  |  |  |  | 
20 | NCI-H2170 | 0.385 | 0.362 | 0.388 | 0.371 | 0.411 | 0.436 | 0.405 | 0.432 | 0.752 | 0.686 | 0.544 | 0.624 |  |  |  |  | 
21 | NCI-H1623 | 0.606 | 0.561 | 0.542 | 0.673 |  |  |  |  | 0.491 | 0.595 | 0.526 | 0.6 |  |  |  |  | 
22 | SW 900 | 0.548 | 0.544 | 0.576 | 0.759 |  | 0.465 |  | 0.494 | 0.19 | 0.208 | 0.158 | 0.185 |  |  |  |  | 
23 | IA-LM |  |  |  |  |  |  |  |  |  |  |  |  | 0.62 | 0.554 | 0.658 | 0.518 | 0.464
24 | CAL-12T | 0.576 | 0.601 | 0.586 | 0.607 |  |  |  |  | 0.327 | 0.374 | 0.491 | 0.508 | 0.878 | 0.784 | 0.819 | 0.802 | 0.715
25 | EBC-1 |  |  |  |  |  |  |  |  |  |  |  |  | 0.947 | 0.776 | 0.837 | 0.732 | 0.632
